Laboratory results: PubChem BioAssay (NCI)
“And” between values parts separate entries of the source, which are not always exact repeats. Identical values can stand only once.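 Test compounds were applied to cells in 96-well plates for 48 hours at 5 doses. GI50: concentration for 50% inhibition of growth. TGI marks complete inhibition of growth.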

Columns and labels:
Assay in all cases: NCI tumour cell line growth inhibition, 48 h
SF-539 CNS = system: SF-539 CNS
HCT-116 colon = system: HCT-116 colon
CAKI-1 renal = system: CAKI-1 renal
SK-MEL-2 melanoma = system: SK-MEL-2 melanoma
NCI-H522 lung = system: NCI-H522 lung
SK-MEL-28 melanoma = system: SK-MEL-28 melanoma
K-562 leukemia = system: K-562 leukemia
UACC-62 melanoma = system: UACC-62 melanoma
SK-MEL-5 melanoma = system: SK-MEL-5 melanoma
HS 578T breast = system: HS 578T breast
SK-OV-3 ovarian = system: SK-OV-3 ovarian
NCI-H226 lung = system: NCI-H226 lung
SN12C renal = system: SN12C renal
NCI-H23 lung = system: NCI-H23 lung
PC-3 prostate = system: PC-3 prostate
TK-10 renal = system: TK-10 renal
MDA-MB-435 = system: MDA-MB-435
RPMI-8226 leukemia = system: RPMI-8226 leukemia
MOLT-4 leukemia = system: MOLT-4 leukemia
OVCAR-5 ovarian = system: OVCAR-5 ovarian
IGROV1 ovarian = system: IGROV1 ovarian
BT-549 breast = system: BT-549 breast
NCI-H460 lung = system: NCI-H460 lung
OVCAR-8 ovarian = system: OVCAR-8 ovarian
HCC-2998 colon = system: HCC-2998 colon
A498 renal = system: A498 renal
NCI/ADR-RES ovarian = system: NCI/ADR-RES ovarian
HL-60(TB) leukemia = system: HL-60(TB) leukemia
LOX IMVI melanoma = system: LOX IMVI melanoma
HOP-62 NSCLC = system: HOP-62 NSCLC
CCRF-CEM leukemia = system: CCRF-CEM leukemia
786-0 renal = system: 786-0 renal
DU-145 prostate = system: DU-145 prostate
SW-620 colon = system: SW-620 colon
COLO 205 colon = system: COLO 205 colon
RXF 393 renal = system: RXF 393 renal
HOP-92 NSCLC = system: HOP-92 NSCLC
A549 NSCLC = system: A549 NSCLC
SNB-19 CNS = system: SNB-19 CNS
SR leukemia = system: SR leukemia
SF-268 CNS = system: SF-268 CNS
KM12 colon = system: KM12 colon
T-47D breast = system: T-47D breast
HT29 colon = system: HT29 colon
MCF7 breast = system: MCF7 breast
EKVX NSCLC = system: EKVX NSCLC
UO-31 renal = system: UO-31 renal
UACC-257 melanoma = system: UACC-257 melanoma
OVCAR-3 ovarian = system: OVCAR-3 ovarian
ACHN renal = system: ACHN renal
SNB-75 CNS = system: SNB-75 CNS
U251 CNS = system: U251 CNS
SF-295 CNS = system: SF-295 CNS
HCT-15 colon = system: HCT-15 colon
OVCAR-4 ovarian = system: OVCAR-4 ovarian
MALME-3M melanoma = system: MALME-3M melanoma
M14 melanoma = system: M14 melanoma
MDA-MB-231 breast = system: MDA-MB-231 breast

For `CCCCCCNCCCNc1c2cc(OC)ccc2nc2cccc([N+](=O)[O-])c12`, the GI50 (SF-539 CNS) was 239 nM, the TGI (SF-539 CNS) was 1180 nM and 616 nM and the GI50 (HCT-116 colon) was 38.4 nM. For the same compound, the TGI (HCT-116 colon) was 155 nM and 1010 nM, the GI50 (CAKI-1 renal) was 240 nM and the TGI (CAKI-1 renal) was 797 nM and 748 nM. The GI50 (SK-MEL-2 melanoma) was 48 nM, the TGI (SK-MEL-2 melanoma) was 209 nM and 199 nM and the GI50 (NCI-H522 lung) was 17.4 nM. The TGI (NCI-H522 lung) was 104 nM and 51.6 nM, the GI50 (SK-MEL-28 melanoma) was 305 nM and the TGI (SK-MEL-28 melanoma) was 474 nM and 2000 nM. The GI50 (K-562 leukemia) was 121 nM, the TGI (K-562 leukemia) was 489 nM and 352 nM and the GI50 (UACC-62 melanoma) was 186 nM. The TGI (UACC-62 melanoma) was 305 nM and 412 nM, the GI50 (SK-MEL-5 melanoma) was 135 nM and the TGI (SK-MEL-5 melanoma) was 2010 nM and 279 nM. The GI50 (HS 578T breast) was 242 nM, the TGI (HS 578T breast) was 1470 nM and 786 nM and the GI50 (SK-OV-3 ovarian) was 266 nM. The TGI (SK-OV-3 ovarian) was 4940 nM and 961 nM, the GI50 (NCI-H226 lung) was 380 nM and the TGI (NCI-H226 lung) was 716 nM and 1410 nM. The GI50 (SN12C renal) was 132 nM, the TGI (SN12C renal) was 421 nM and 343 nM and the GI50 (NCI-H23 lung) was 165 nM. For the same compound, the TGI (NCI-H23 lung) was 296 nM and 351 nM, the TGI (PC-3 prostate) was 560 nM and 1020 nM and the GI50 (TK-10 renal) was 322 nM. For the same compound, the TGI (TK-10 renal) was 387 nM and 875 nM, the GI50 (MDA-MB-435) was 164 nM and the TGI (MDA-MB-435) was 314 nM and 321 nM. For the same compound, the GI50 (RPMI-8226 leukemia) was 64.6 nM, the TGI (RPMI-8226 leukemia) was 140 nM and 348 nM and the GI50 (MOLT-4 leukemia) was 51.4 nM. For the same compound, the GI50 (OVCAR-5 ovarian) was 190 nM, the TGI (OVCAR-5 ovarian) was 383 nM and 794 nM and the GI50 (IGROV1 ovarian) was 223 nM. The GI50 (BT-549 breast) was 1040 nM, the TGI (BT-549 breast) was 2300 nM and 2270 nM and the GI50 (NCI-H460 lung) was 33.7 nM. For the same compound, the TGI (NCI-H460 lung) was 183 nM, the GI50 (OVCAR-8 ovarian) was 236 nM and 105 nM and the TGI (OVCAR-8 ovarian) was 2450 nM and 644 nM. The TGI (HCC-2998 colon) was 64.3 nM, the GI50 (A498 renal) was 227 nM and the TGI (A498 renal) was 3600 nM and 462 nM. For the same compound, the GI50 (NCI/ADR-RES ovarian) was 555 nM, the TGI (NCI/ADR-RES ovarian) was 2410 nM and 3650 nM and the GI50 (HL-60(TB) leukemia) was 155 nM. For the same compound, the GI50 (LOX IMVI melanoma) was 272 nM, the TGI (LOX IMVI melanoma) was 542 nM and 974 nM and the GI50 (HOP-62 NSCLC) was 124 nM. For the same compound, the TGI (HOP-62 NSCLC) was 371 nM and 449 nM, the GI50 (CCRF-CEM leukemia) was 118 nM and the TGI (CCRF-CEM leukemia) was 289 nM and 538 nM. For the same compound, the GI50 (786-0 renal) was 205 nM, the TGI (786-0 renal) was 368 nM and 724 nM and the GI50 (DU-145 prostate) was 162 nM. The TGI (DU-145 prostate) was 338 nM and 1360 nM, the GI50 (SW-620 colon) was 132 nM and the TGI (SW-620 colon) was 4190 nM and 1300 nM. It also gave a GI50 (COLO 205 colon) of 143 nM, a TGI (COLO 205 colon) of 648 nM and a TGI (RXF 393 renal) of 111 nM. For the same compound, the GI50 (HOP-92 NSCLC) was 239 nM, the TGI (HOP-92 NSCLC) was 534 nM and 655 nM and the GI50 (A549 NSCLC) was 213 nM. The TGI (A549 NSCLC) was 393 nM and 1080 nM, the GI50 (SNB-19 CNS) was 206 nM and the TGI (SNB-19 CNS) was 3860 nM and 1020 nM. For the same compound, the GI50 (SR leukemia) was 121 nM, the GI50 (SF-268 CNS) was 261 nM and the TGI (SF-268 CNS) was 418 nM and 1010 nM. For the same compound, the GI50 (KM12 colon) was 160 nM, the TGI (KM12 colon) was 508 nM and 472 nM and the GI50 (T-47D breast) was 350 nM. The TGI (T-47D breast) was 931 nM and 2490 nM, the GI50 (HT29 colon) was 54.4 nM and the TGI (HT29 colon) was 407 nM and 353 nM. It also gave a GI50 (MCF7 breast) of 34.8 nM, a TGI (MCF7 breast) of 398 nM and a GI50 (EKVX NSCLC) of 1350 nM. For the same compound, the TGI (EKVX NSCLC) was 427 nM and 3320 nM, the GI50 (UO-31 renal) was 187 nM and the TGI (UO-31 renal) was 703 nM and 431 nM. The GI50 (UACC-257 melanoma) was 395 nM, the TGI (UACC-257 melanoma) was 1400 nM and 1470 nM and the GI50 (OVCAR-3 ovarian) was 309 nM. For the same compound, the TGI (OVCAR-3 ovarian) was 297 nM and 1050 nM, the GI50 (ACHN renal) was 159 nM and the TGI (ACHN renal) was 1540 nM and 535 nM. For the same compound, the GI50 (SNB-75 CNS) was 183 nM, the TGI (SNB-75 CNS) was 865 nM and 420 nM and the GI50 (U251 CNS) was 40.7 nM. The GI50 (SF-295 CNS) was 163 nM, the TGI (SF-295 CNS) was 413 nM and 1030 nM and the GI50 (HCT-15 colon) was 212 nM. The TGI (HCT-15 colon) was 14400 nM, the GI50 (OVCAR-4 ovarian) was 88.5 nM and the TGI (OVCAR-4 ovarian) was 346 nM and 238 nM. For the same compound, the GI50 (MALME-3M melanoma) was 179 nM, the TGI (MALME-3M melanoma) was 199 nM and 422 nM and the GI50 (M14 melanoma) was 143 nM. For the same compound, the TGI (M14 melanoma) was 285 nM and 293 nM, the GI50 (MDA-MB-231 breast) was 247 nM and the TGI (MDA-MB-231 breast) was 481 nM and 1020 nM.
